Reference: US8974819B2, “Sustained-release chitosan capsules comprising chitosan and phytic acid” (priority 2007, dated 2015)

Columns and labels:
diabetic rats = experiment: Blood glucose lowering effect by dosage for 4 hours in diabetic rats; type: in vivo, Male Sprague-Dawley (SD) rats; settings: diabetic SD rats, subcutaneous injection (PC, positive control)
diabetic mouse = experiment: Blood glucose level after administration to diabetic mice; type: in vivo, Balb-c strain male mice; settings: subcutaneous injection, 1 IU/kg
Experimental: Six-week old Balb-c strain male mice were used. Streptozotocin was dissolved in a 0.1 mM sodium chloride buffer at a concentration of 30 mg/mL, followed by subcutaneously injecting into the […] at a dosage of 65 mg/kg so as to induce diabetes. The male mice showing a blood glucose level of 470±40 mg/dL over two consecutive days were selected and the experiment was performed. The diabetic mice were starved for 12 hours before the experiment was started.
After the capsules showing the most preferable result were selected from Experimental Example 7 and Comparative Experimental Example 5, respectively, each capsule was orally administered to the diabetic mouse established in Preparative Example 4 and a blood glucose level was measured. […]
AAC (area above the blood glucose level-time curve) is to be numerically expressed the area above the blood glucose level-time curve by using a linear trapezoidal rule. […] F is relative bioavailability of a drug, which is calculated by multiplying the AAC value in case of the oral administration of insulin by the amount of insulin subcutaneously injected, dividing the resulting value by the AAC value in case of the subcutaneous injection of insulin, and dividing the resulting value by the amount of insulin orally administered. […]

## Insulin
Diabetic rats
  blood glucose level: most rapidly decreased
Diabetic mouse
  blood glucose level: rapidly decreased
